# Test results reported in US10059945B2, “Methods of controlling cell fate and consequences for disease” (THE GENERAL HOSPITAL CORPORATION, priority 2014, dated 2018).
# Test system: reprogrammable MEFs
# Assay: alkaline phosphatase-positive (AP+) transgene-independent iPSC colony formation
# Format: cell-based, mouse
# Settings: 4-factor reprogrammable cells, doxycycline
# Procedure: Transfections of RepMEFs with siRNAs were performed in 12-well plates at the time of dox administration. Per 12-well plate, 2 ul of Lipofectamine™ 2000 was added to 75 ul of Optimem™ (Life Technologies™) and 1.5 ul of siRNA (esiRNA, Sigma™) was added to 75 ul of Optimem™; both mixtures were separately incubated at room temperature for 5 minutes, then combined and incubated for another 15 minutes before adding the solution to the reprogramming media (normal media lacking antibiotics). After overnight incubation, the transfection media was replaced with regular reprogramming media.
row,"generation of AP+ iPSC colonies, small molecules vs knockdown alone",Structure (SMILES)
1,significantly enhanced,"O=C1O[C@H]([C@@H](O)CO)C(O)=C1O [ascorbic acid, L-Ascorbic acid]"
2,significantly enhanced,"Cc1c[nH]c(-c2cnc(NCCNc3ccc(C#N)cn3)nc2-c2ccc(Cl)cc2Cl)n1 [Gsk3 inhibitor, CHIR99021]"
